Test results taken from patent US20090186839A1, “Model for studying the role of genes in chemoresistance” (Cold Spring Harbor Laboratory, priority 2003, published 2009).
Like-named read-outs stand apart in the source and are kept apart here.

Columns and labels:
[1] = test system: Eμ-myc/ARF−/− control lymphomas; experiment: In vivo chemotherapy of mice bearing control (ARF-null) lymphomas; design: species or system mouse; conditions: CTX 300 mg/kg i.p.
Source text: (§2) Tumor cells were transplanted from the Akt-expressing tumors and from control tumors (Eμ-myc, arf^−/−, p53^+/+) into syngeneic, non-transgenic 6-10 week old C57BL/6 mice by tail vein injection [10^6 viable lymphoma cells in phosphate-buffered saline (PBS)] and recipient mice were monitored for tumor formation twice a week by palpation of the pre-scapular and cervical lymph-nodes. […] Following treatments, mice were monitored for immediate response and time to relapse by lymph node palpation and by blood smears (by tail artery bleeding) stained according to a modified Wright's protocol using the LeukoStat kit (Fisher Scientific, Pittsburgh, Pa.). The data were statistically evaluated.
A ‘complete remission’ (CR) was defined as absence of any palpable tumor and the absence of leukemia, as examined by blood smears. ‘Tumor free survival’ was defined as the time between treatment and reappearance of a well-palpable lymphoma (Schmitt, C. A., et al., “Genetic analysis of chemoresistance in primary murine lymphomas,” Nat. Med. 6: 1029-1035 (2000)). ‘Overall survival’ was defined as the time between treatment and progression to a terminal stage at which the animals were sacrificed. Tumor free and overall survival data were analyzed in the Kaplan-Meier format using the log-rank (Mantel-Cox) test for statistical significance. […]

[2] = test system: Eμ-myc/Akt lymphomas; experiment: In vivo chemotherapy of mice bearing Akt lymphomas; design: species or system mouse
Source text: as §2

[3] = test system: Eμ-Myc/eIF4E lymphomas; experiment: In vivo chemotherapy of mice bearing eIF4E lymphomas; design: species or system mouse; conditions: for animals that had developed terminal lymphoma / reversal of DXR resistance / sensitization to DXR: Eμ-Myc/eIF4E tumors, silvestrol 0.2 mg/kg daily 5 days i.p.; for animals that had developed terminal lymphoma: by the 40 day time point, DXR once 10 mg/kg
Source text: A ‘complete remission’ (CR) was defined as absence of any palpable tumor and the absence of leukemia, as examined by blood smears. ‘Tumor free survival’ was defined as the time between treatment and reappearance of a well-palpable lymphoma (Schmitt, C. A., et al., “Genetic analysis of chemoresistance in primary murine lymphomas,” Nat. Med. 6: 1029-1035 (2000)). ‘Overall survival’ was defined as the time between treatment and progression to a terminal stage at which the animals were sacrificed. Tumor free and overall survival data were analyzed in the Kaplan-Meier format using the log-rank (Mantel-Cox) test for statistical significance. Whole body fluorescence imaging of living animals was performed as described (Schmitt, C. A., et al., “Dissecting p53 tumor suppressor functions in vivo,” Cancer Cell 1: 289-298 (2002) and Yang, M., et al., “Whole-body optical imaging of green fluorescent protein-expressing tumors and metastases.” Proc. Natl. Acad. Sci. USA 97: 1206-1211 (2000)).
Doxorubicin (Sigma) and cyclophosphamide (Sigma) were dissolved in saline. In treatment studies, control lymphomas were ARF-null tumors arising in an Eμ-myc/ARF−/− background (Schmitt, C. A., et al., “INK4a/ARF mutations accelerate lymphomagenesis and promote chemoresistance by disabling p53,” Genes Dev. 13: 2670-2677 (1999)).
Primary tumors arising in Eμ-Myc/eIF4E mice were harvested and a total of 2×10^6 secondary lymphoma cells were injected into the tail veins of 6-8 week old female C57BL/6 (non-transgenic) mice. Upon tumor formation of palpable secondary tumors, mice were treated with i.p. administration of drug. The treatment schedule included an injection with DXR (once at 10 mg/kg), silvestrol (0.2 mg/kg daily for 5 days) or various combinations. DXR and silvestrol were diluted in 5.2% PEG400/5.2% Tween 80 immediately prior to i.p. injection. In combination studies, silvestrol was administered once daily for 5 consecutive days, with DXR administered on day 2. Mice were then palpated regularly and monitored for the disappearance or recurrence of tumors.
Data are presented as Kaplan-Meier plots using the log-rank (Mantel-Cox) test for statistical significance (SigmaStat software) in FIG. 29, showing the tumor free survival/time to relapse, and FIG. 30, showing the overall survival/time. Time to relapse for mice that were never tumor free was scored as ‘0’ days. Tumor free survival was defined as the time between treatment and reappearance of a palpable lymphoma. Overall survival was defined as the time between treatment and progression to a terminal stage at which the animals were sacrificed. […] With either compound alone, approximately 80% of the animals had developed terminal lymphoma by the 40 day time point. With a combination treatment of silvestrol and DXR, less than 30% of the animals had developed terminal lymphoma by the end test point, well over 60 days.

[4] = test system: Eμ-myc/PTEN+/− tumors; experiment: In vivo chemotherapy of mice bearing PTEN+/− lymphomas; design: species or system mouse; conditions: for reversal of DXR resistance / sensitization to DXR: RAP 4 mg/kg, silvestrol 0.2 mg/kg daily 5 days i.p.
Method: Primary tumors arising in Eμ-myc/PTEN+/− and Ep-myc/PTEN+/− mice were harvested and injected into C57BL/6 (non-transgenic) mice. Upon tumor formation of palpable secondary tumors, mice were treated with a single i.p. administration of drug. The treatment schedule included an injection with either DXR ([…] in 0.9% saline), CTX (300 mg/kg in 0.9% saline), RAP (4 mg/kg in 0.9% H2O with 5% PEG/TWEEN), or a combination thereof (d1: DXR or CTX, d2: DXR or CTX and RAP, d3-5: DXR pr CTX). Mice were then palpated twice weekly for disappearance or recurrence of tumors. Data are presented as Kaplan-Meier plots in FIG. 19, and show the tumor free survival/time to relapse. Time to relapse for mice that were never tumor free was scored as ‘0’ days. […] The bottom panel has an equivalent analysis for treatment with CTX, RAP, and RAP+CTX combination.
Primary tumors arising in PTEN+/−Eμ-Myc mice were harvested and a total of 2×10^6 secondary lymphoma cells were injected into the tail veins of 6-8 week old female C57BL/6 (non-transgenic) mice. Upon tumor formation of palpable secondary tumors, mice were treated with i.p. administration of drug. The treatment schedule included an injection with DXR (once at 10 mg/kg), RAP (4 mg/kg daily for 5 days), or silvestrol (0.2 mg/kg daily for 5 days). RAP, DXR, and silvestrol were diluted in 5.2% PEG400/5.2% Tween 80 immediately prior to i.p. injection.
The ability of rocaglates to work in synergistic combination with other cytotoxic agents has not previously been tested. Silvestrol was therefore tested in combination with DXR, where silvestrol or RAP were administered once daily for 5 consecutive days, with DXR administered on day 2. Mice were then palpated twice weekly for the disappearance or recurrence of tumors.
Data are presented as Kaplan-Meier plots using the log-rank (Mantel-Cox) test for statistical significance (SigmaStat software) in FIG. 28, and show the tumor free survival/time to relapse. Time to relapse for mice that were never tumor free was scored as ‘0’ days. […]

[5] = test system: HeLa cells; experiment: [35S]-methionine incorporation into proteins (translation inhibition), 1 h incubation; assay type: cell-based; conditions: read-out: IC50, inhibition of [35S]-methionine incorporation into proteins
Method: Results are the average of three experiments with standard error of the mean shown.
(§1) The ability of rocaglates to induce apoptosis and inhibit protein synthesis was investigated. […] Jurkat cells were exposed to silvestrol or FA and translation inhibition and apoptosis induction were monitored. Translation initiation was measured as the inhibition of [^35S]-methionine incorporation into proteins in a dose-dependent manner. Apoptosis induction was measured as the percentage of tagged living cells measured by flow cytometry and expressed relative to vehicle treated cells.
For translation inhibition experiments, HeLa cells were incubated for 1 h with 10 μM anisomycin, 5 μM of the peptide FMRFA, 0.4 μM silvestrol, or vehicle (MeOH). Cells were then washed with PBS, and incubated with media lacking compound for the indicated times. Ten minutes before harvesting, [^35S]-methionine was added to the culture. The rate of [^35S]-methionine incorporation into TCA-insoluble material was measured and was expressed relative to vehicle (MeOH) treated cells.

[6] = target: eIF4A (Homo sapiens, UniProt P60842); experiment: Cross-linking experiments, eIF4A binding to mRNA; assay type: biochemical; conditions: data not shown
Chain of eIF4A (P60842 whole entry, species assumed): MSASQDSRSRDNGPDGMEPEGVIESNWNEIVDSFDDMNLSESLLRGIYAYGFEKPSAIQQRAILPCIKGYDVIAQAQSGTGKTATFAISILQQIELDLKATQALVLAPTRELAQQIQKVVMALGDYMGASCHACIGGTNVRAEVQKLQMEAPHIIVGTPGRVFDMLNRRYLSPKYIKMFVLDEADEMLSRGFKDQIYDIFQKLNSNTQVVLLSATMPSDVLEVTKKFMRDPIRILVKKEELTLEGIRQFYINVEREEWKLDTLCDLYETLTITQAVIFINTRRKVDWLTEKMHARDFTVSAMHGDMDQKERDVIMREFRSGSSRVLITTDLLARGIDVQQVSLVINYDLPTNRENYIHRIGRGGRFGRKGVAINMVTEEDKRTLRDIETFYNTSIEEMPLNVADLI
Source text: Inhibition of translation initiation induces apoptosis (Li et al., 2002, Mol. Cell. Biol. 22, 2853-2861; Polunovsky et al., 2000, J. Biol. Chem. 275, 24776-24780), although the precise mechanism by which this event is triggered is not fully understood. One hypothesis is that changes in the levels or activity of eIF4F mediate the translational regulation of specific genes involved in survival and apoptosis. Gene specific translational control is thought to be mediated by the amount of secondary structure within the 5′ untranslated regions of mRNAs which dictates the eIF4Ac-requirement for ribosome recruitment (Svitkin et al., 2001, RNA 7, 382-394).

[7] = test system: Jurkat cells; experiment: Apoptosis / living cells by flow cytometry (Annexin V, propidium iodide); assay type: cell-based; conditions: 13 hr exposure, concentration not given
Method: Jurkat cells were incubated with the indicated silvestrol concentrations for 13 h after which time the rate of [^35S]-methionine incorporation or the percentage of living cells was measured. [^35S]-methionine was added 10 minutes before the end of the incubation period and the rate of incorporation is expressed relative to vehicle (MeOH) treated cells. Results are the average of two experiments with the error of the mean shown. The percentage of living cells was determined by flow cytometry following staining of the cells with Annexin V and propidium iodide. […]
as §1
Jurkat cells were incubated with the indicated silvestrol concentrations for 13 h after which time the rate of [^35S]-methionine incorporation or the percentage of living cells was measured. [^35S]-methionine was added 10 min. before the end of the incubation period and the rate of incorporation is measured relative to vehicle (MeOH) treated cells. […]

[8] = test system: Jurkat cells; experiment: [35S]-methionine incorporation rate after 13 h silvestrol; assay type: cell-based; conditions: Homo sapiens, 13 h incubation, read-out: IC50, inhibition of protein synthesis
Method: Jurkat cells were incubated with the indicated silvestrol concentrations for 13 h after which time the rate of [^35S]-methionine incorporation or the percentage of living cells was measured. [^35S]-methionine was added 10 minutes before the end of the incubation period and the rate of incorporation is expressed relative to vehicle (MeOH) treated cells. Results are the average of two experiments with the error of the mean shown. The percentage of living cells was determined by flow cytometry following staining of the cells with Annexin V and propidium iodide. The percentage of living cells is expressed relative to vehicle (MeOH) treated and the results are the average of three experiments with the error of the mean shown.
Jurkat cells were incubated with the indicated silvestrol concentrations for 13 h after which time the rate of [^35S]-methionine incorporation or the percentage of living cells was measured. [^35S]-methionine was added 10 min. before the end of the incubation period and the rate of incorporation is measured relative to vehicle (MeOH) treated cells. The percentage of living cells was determined by flow cytometry following staining of the cells with Annexin V and propidium iodide. Silvestrol induced apoptosis in 50% of Jurkat cells following 13 hr exposure (FIG. 27). […]

O=P1(N(CCCl)CCCl)NCCCO1 (centres unmarked) [CTX, cyclophosphamide]
complete remission [1]: invariably entered a complete remission
mice remaining tumor free after 100 days [1]: > 50%
duration of remissions ([2]; Akt lymphomas, CTX 300 mg/kg i.p.): less than 20 days
mice achieving remissions lasting more than 60 days ([2]; Akt lymphomas, CTX 300 mg/kg, RAP 4 mg/kg x 5 d): none

COc1cccc2c1C(=O)c1c(O)c3c(c(O)c1C2=O)C[C@@](O)(C(=O)CO)C[C@@H]3O[C@H]1C[C@H](N)[C@H](O)[C@H](C)O1 [DXR, doxorubicin]
animals that had developed terminal lymphoma [3]: approximately 80%
tumor response to therapy ([3]; eIF4E lymphomas): highly resistant to DXR therapy
tumor response to therapy ([4]; DXR): resistant to DXR
tumor free and overall survival relative to control lymphomas ([2]; Akt lymphomas, DXR 10 mg/kg i.p.): substantial reductions in tumor free and overall survival
whole body GFP imaging of tumors ([2]; Akt-GFP secondary tumors, day 21 post treatment): sizable tumors at several sites

COC(=O)[C@H]1[C@@H](OC=O)[C@@]2(O)c3c(OC)cc(OC)cc3O[C@@]2(c2ccc(OC)cc2)[C@@H]1c1ccccc1 [FA, 1-O-formylaglafoline]
IC50 ([5]; 1 h incubation): ~100 nM
effect on ability of eIF4A to bind mRNA [6]: stimulate the ability of eIF4A to bind mRNA

COC(=O)[C@H]1[C@@H](O)[C@@]2(O)c3c(OC)cc(O[C@@H]4O[C@@H]([C@H](O)CO)CO[C@H]4OC)cc3O[C@@]2(c2ccc(OC)cc2)[C@@H]1c1ccccc1 [silvestrol]
cells in which apoptosis was induced [7]: 50%
IC50 ([5]; Homo sapiens, HeLa, 1 h): 20 nM
animals that had developed terminal lymphoma [3]: approximately 80%
reversal of DXR resistance / sensitization to DXR [3]: reversed this drug resistance
reversal of DXR resistance / sensitization to DXR ([3]; listed as Silvestrol): sensitizes Eμ-Myc/eIF4E tumors to the effects of DXR
effect on ability of eIF4A to bind mRNA [6]: stimulate the ability of eIF4A to bind mRNA
reversal of DXR resistance / sensitization to DXR [4]: reverse this drug resistance
reversal of DXR resistance / sensitization to DXR ([4]; listed as Silvestrol): sensitizes PTEN^+/−Eμ-Myc tumors to the effects of doxorubicin
IC50 [8]: 1 nM
